# Values of other authors in US20050049232A1, “Composition” (priority 2001, published 2005).
# System: androgenic alopecia patients
# Settings: topical solutions, alone or in combination with skin penetration enhancers such as DMSO
compound,measurement,value
"Nc1cc(N2CCCCC2)nc(N)[n+]1[O-] [minoxidil, 2,4-diamino-6-piperidino-pyrimidine-3-oxide]",patients with moderate to dense regrowth of hair,less than 40%
